Measured values as given in US20150259371A1, “METHODS AND COMPOUNDS FOR INHIBITING GLYCOSYLTRANSFERASES” (SIMON FRASER UNIVERSITY, priority 2010, published 2015).

Tests used:
[1] = tested on: UDP-sugar nucleotide pools in COS-7 cells; test: UDP-sugar pools extracted from treated COS-7 cells, capillary electrophoresis; format: cell-based, African green monkey
Experimental: Capillary electrophoresis (CE): CE was performed on a ProteomeLab PA800 (Beckman-Coulter) using fused silica capillaries of […]×44 cm (to detector). The running buffer was 40 mM Na2B4O7 (Sigma), pH 9.5, containing 1.0% (wv) polyethylene glycol (MW 20,000; Fluka) and filtered prior to use. The capillary was conditioned by washing with 1 N NaOH (2 min, 20 psi), 18 MΩ H2O (3 min, 20 psi) and running buffer (5 min, 40 psi). After injecting a short (15 nL) H2O plug, samples were electrostatically introduced and pre-concentrated at the anode by applying a potential of -0.5 kV for 10 s according to the field-amplified sample injection technique described by Chien and Burgi^39. Electrophoresis was carried out at a constant voltage of 30 kV and capillary temperature of 22° C. Electropherograms were derived by measuring the absorbance at 254 (+/−10) nm at a rate of 4 Hz. Peaks were integrated using 32 Karat 5.0 software (Beckman-Coulter) and all peaks were normalized to the GDP-Glc internal standard.
Extraction of nucleotide sugars from cell lysates: COS-7 cells, on 10 cm plates, were treated with 0, 50, 250 or 1000 μM Ac-5SGlcNAc for 24 h; each condition was performed in triplicate. Cells were washed gently with PBS prior to the addition of 1 mL PBS containing 10 mM EDTA. Cells were incubated at 37° C. for […], the cells scraped from the plate, and pelleted by centrifugation (1000 rpm, 10 min, 4° C.). Cell pellets were immediately lysed by the addition of 750 μL 75% (vv) ethanol (−20° C.) and sonicated using a W-375 ultrasonic processor (Heat Systems Ultrasonics, Inc.). Insoluble material was removed by centrifugation (14,000 rpm, 15 min, 4° C.) and the supernatant was snap frozen and lyophilized^44,45. The crude extract was spiked with GDP-Glc (200 pmol) as an internal standard, dissolved in 0.5 mL 18 MΩ H2O and nucleotide sugars extracted using Envi-Carb graphite solid-phase extraction cartridges (200 mg) (Supelco) as described by Räbinä et al^38. Briefly, Envi-Carb cartridges were conditioned with 80% (vv) CH3CN and 20% 0.1% (vv) TFA (3 mL), followed by 18 MΩ H2O (6 mL), before samples were applied. After passing the samples through the SPE cartridge, the cartridge was sequentially washed with 2 mL of each of 18 MΩ H2O, 25% (vv) CH3CN, and 50 mM triethylammonium acetate (TEAA), pH 7.0. Sugar nucleotides were eluted with 3×1 mL 25% CH3CN in 50 mM TEAA, pH 7.0, passed through a 0.22 μm filter (Millipore), lyophilized, and stored at −20° C. until analysis. Extracted sugar nucleotides were dissolved in 200 μL 18 MΩ H2O and an aliquot was diluted 1:4 prior to characterization by CE using a method adapted from Feng et al^46.

[2] = tested on: N-glycosylation in COS-7 cells; test: Lectin blots of glycans in treated COS-7 cells; format: cell-based, African green monkey; settings: COS-7, 0-1000 μM, 24 h
Experimental: Westernlectin blots: Samples were run on 10% SDS polyacrylamide gels and transferred onto nitrocellulose membranes (Biorad). Membranes were blocked for 1 h in PBS containing 0.1% Tween-20 (PBS-T) containing 1% (unless otherwise stated) bovine serum albumin (BSA), and probed with the appropriate primary antibody or lectin in 1% BSA in PBS-T overnight at 4° C. Blots were washed for 1 hr with PBS-T, and blocked for a further 30 min with 1% BSA in PBS-T at room temperature. They were then probed with the appropriate horseradish peroxidise (HRP)-conjugated secondary antibodyprobe in 1% BSA in PBS-T at room temperature for 1 h, followed by washing in PBS-T for 1 h. […]
Antibodieslectins: O-GlcNAc levels were assessed primarily using CTD110.6 (Covance), but RL2 (Abcam) and HGAC85 (Abcam) were also tested. […] OGA levels were assessed using a polyclonal anti-OGA antibody which was a kind gift from Dr. Gerald Hart and OGT levels using H-300 (Santa Cruz Biotechnology). nup62 was probed using mAb 414 (Covance). […]
To assess whether cell surface glycosylation could be affected through changes in UDP-GlcNAc availability or inhibition of GlcNAc transferases within the secretory pathway, we treated COS-7 cells with a range of Ac-5SGlcNAc concentrations and evaluated the effect on various glycans using lectin blots. […]

[3] = tested on: O-GlcNAc levels in mice tissues; test: O-GlcNAc levels in mouse tissues after intraperitoneal dosing; format: in vivo; settings: 300 mg/kg intraperitoneally, 16 hours
Experimental: Ac-5SGlcNAc 9 and the deprotected analogue with the hexyl substituent at the C2 position 28 have been analyzed for effectiveness at decreasing O-GlcNAc levels in mice. Pilot studies were conducted with mice dosed in triplicate with either compound or vehicle alone. Compounds were dosed at 300 mg/kg intraperitoneally using 75% DMSO as vehicle for delivery of 9 and phosphate-buffered saline (PBS) for delivery of 28. Mice were euthanized using a CO2 chamber after 16 hours exposure to either compound, and tissues (liver, lung, heart, kidney, spleen, pancreas, brain, blood, fat and muscle) harvested and flash frozen in liquid nitrogen. Frozen tissues were ground using a pestle and mortar, and resuspended in cell lysis buffer (50 mM NaH2PO4, 150 mM NaCl, 0.1% SDS, 1% NP-40, 0.25% sodium deoxycholate, 1 mM EDTA, 30 mM sodium fluoride, 30 mM β-glycerophosphate, 5 mM sodium pyrophosphate, 1 mM Thiamet-G, protease inhibitor cocktail (Roche)) at a concentration of 100 mg tissue1 mL buffer prior to homogenization. Homogenates were centrifuged at 13,000 rpm for 20 min, the supernatant removed, added to 2×SDS-PAGE loading buffer and boiled for […]. SDS-PAGE and western blots were performed using standard procedures. Blots were probed using anti-O-GlcNAc antibody (CTD110.6, Santa Cruz Biotechnology) and anti-actin antibody for a loading control.

CC(=O)NC1C(OC(C)=O)SC(COC(C)=O)C(OC(C)=O)C1OC(C)=O [Compound 9, N-Acetyl-1,3,4,6-tetra-O-acetyl-α-D-5-thio-glucosamine]
UDP-GlcNAc levels relative to basal ([1]; 50 μM): more than 60 % of basal levels | UDP-Glc and UDP-Gal levels in cells ([1]; COS-7, 0-1000 μM, 24 h): uridine diphosphoglucose and uridine diphosphogalactose levels are unaffected | UDP-GlcNAc levels in cells ([1]; COS-7, 0-1000 μM, 24 h): small decrease in UDP-GlcNAc levels | amount of UDP-5SGlcNAc in cells ([1]; COS-7, 0-1000 μM, 24 h): dose dependent increase in the amount of UDP-5SGlcNAc in cells | glycosylation by lectin blots (ConA, GNA, PHA-L, SNA, MAA) [2]: All lectins tested showed no change in glycosylation | O-GlcNAc levels in tissues [3]: effective at decreasing O-GlcNAc levels during the 16 hour dosing period in the liver, lung, heart, kidney, spleen, pancreas, fat and muscle
